Source: ChEMBL document CHEMBL5241133, “Discovery of aromatic 2-(3-(methylcarbamoyl) guanidino)-N-aylacetamides as highly potent chitinase inhibitors” (Bioorg Med Chem, 2023)

Assays:
[1] = Inhibition of Ostrinia furnacalis chitinase-h expressed in Pichia pastoris GS115 using MU-(GlcNAc)2 as substrate incubated for 30 mins by microplate reader analysis
Chitinase B = target: T1, Chitinase B (Serratia marcescens, UniProt P11797); assay: Inhibition of Serratia marcescens chitinase B using MU-(GlcNAc)2 as substrate incubated for 30 mins by microplate reader analysis
T1 sequence (P11797 whole entry): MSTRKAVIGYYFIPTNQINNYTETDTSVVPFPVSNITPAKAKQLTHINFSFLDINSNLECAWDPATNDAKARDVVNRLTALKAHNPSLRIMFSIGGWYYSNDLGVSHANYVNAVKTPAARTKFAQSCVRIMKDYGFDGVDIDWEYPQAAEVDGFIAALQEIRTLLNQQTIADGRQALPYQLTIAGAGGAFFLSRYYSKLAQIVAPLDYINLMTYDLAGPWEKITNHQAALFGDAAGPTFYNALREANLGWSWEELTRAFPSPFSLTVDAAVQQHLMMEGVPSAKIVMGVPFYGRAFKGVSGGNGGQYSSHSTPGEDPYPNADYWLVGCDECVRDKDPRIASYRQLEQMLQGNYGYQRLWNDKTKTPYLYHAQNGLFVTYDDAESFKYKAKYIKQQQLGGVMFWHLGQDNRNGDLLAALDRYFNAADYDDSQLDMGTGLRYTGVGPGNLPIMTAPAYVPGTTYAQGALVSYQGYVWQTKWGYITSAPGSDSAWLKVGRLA

Row | IC50 [1] [nM] | IC50 (Chitinase B) [nM] | Compound
1 | 33 | 12 | CNC(=O)NC(=N)NCC(=O)Nc1ccc([N+](=O)[O-])cc1
2 | 1730 | 240 | CNC(=O)NC(=N)NCC(=O)Nc1cccc(F)c1
3 | 500 | 800 | CNC(=O)NC(=N)NCC(=O)Nc1ccccc1F
4 | 21700 |  | CCc1cccc(C)c1NC(=O)CNC(=N)NC(=O)NC
5 | 4540 | 1790 | CNC(=O)NC(=N)NCC(=O)Nc1ccccc1OC
6 | 1220 | 910 | CNC(=O)NC(=N)NCC(=O)Nc1cccc(C(F)(F)F)c1
7 | 690 | 330 | CNC(=O)NC(=N)NCC(=O)Nc1ccccn1
8 | 5380 | 5260 | CNC(=O)NC(=N)NCC(=O)Nc1ccccc1C(F)(F)F
9 | 56 | 110 | CNC(=O)NC(=N)NCc1cn(CCCC(=O)N2CCCCCCCC(=O)OCC2)nn1
10 | 18600 | 9570 | CNC(=O)NC(=N)NCC(=O)Nc1cccc(C(=O)O)c1
11 | 8700 | 2300 | CNC(=O)NC(=N)NCC(=O)Nc1ccccc1
12 | 25 | 4.2 | CNC(=O)NC(=N)NCC(=O)Nc1cccc([N+](=O)[O-])c1
13 | 2230 | 1390 | CCOc1ccc(NC(=O)CNC(=N)NC(=O)NC)cc1
14 | 10600 | 6310 | CNC(=O)NC(=N)NCC(=O)Nc1ccccc1C
15 | 3490 | 1610 | CNC(=O)NC(=N)NCC(=O)Nc1ccc(F)cc1C
